Key:
[1] = target: T1, SUMO (Homo sapiens, UniProt Q9UBT2); experiment: SUMO activity (Table I, biological activities); assay type: biochemical; design: key: + (less active); ++ (active); +++ (most active)
T1 sequence (Q9UBT2 1-640): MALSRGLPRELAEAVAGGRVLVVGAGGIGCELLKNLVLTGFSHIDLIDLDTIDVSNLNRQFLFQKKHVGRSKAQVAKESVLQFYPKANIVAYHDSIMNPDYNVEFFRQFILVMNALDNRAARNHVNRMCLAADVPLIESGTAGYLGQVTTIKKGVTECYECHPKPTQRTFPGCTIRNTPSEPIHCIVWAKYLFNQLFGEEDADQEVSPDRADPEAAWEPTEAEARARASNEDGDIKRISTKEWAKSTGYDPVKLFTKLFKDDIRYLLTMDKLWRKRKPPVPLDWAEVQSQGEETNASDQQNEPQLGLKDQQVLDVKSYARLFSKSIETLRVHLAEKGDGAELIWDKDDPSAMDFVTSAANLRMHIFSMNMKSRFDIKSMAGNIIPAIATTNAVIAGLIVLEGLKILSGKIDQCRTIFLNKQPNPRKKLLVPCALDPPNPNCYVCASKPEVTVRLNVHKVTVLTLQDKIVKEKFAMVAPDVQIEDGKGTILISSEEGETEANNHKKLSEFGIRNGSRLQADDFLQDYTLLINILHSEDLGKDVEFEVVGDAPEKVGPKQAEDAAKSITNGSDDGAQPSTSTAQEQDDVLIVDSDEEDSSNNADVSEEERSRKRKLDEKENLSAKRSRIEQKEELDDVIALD
T1 sequence (Q9UBE0 1-346 partner): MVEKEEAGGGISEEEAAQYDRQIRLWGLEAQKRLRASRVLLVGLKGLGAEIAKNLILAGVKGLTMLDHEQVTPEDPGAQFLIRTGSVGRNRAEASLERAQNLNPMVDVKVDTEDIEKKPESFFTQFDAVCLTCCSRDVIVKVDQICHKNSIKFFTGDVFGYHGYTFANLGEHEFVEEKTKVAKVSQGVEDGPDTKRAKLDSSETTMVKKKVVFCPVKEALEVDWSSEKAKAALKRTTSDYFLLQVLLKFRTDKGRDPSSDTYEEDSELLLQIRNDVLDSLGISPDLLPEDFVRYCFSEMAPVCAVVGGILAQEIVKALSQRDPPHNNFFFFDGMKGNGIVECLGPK

[2] = system: c-Myc; experiment: c-Myc activity (Table I, biological activities); design: key: + (less active); ++ (active); +++ (most active)

SMILES | SUMO [1] | c-Myc [2]
COC(=O)C1=C(C(=O)NCCN2CCCC2)C2C=CC1(C(Cc1ccccc1)Nc1cc(F)cc(Cl)c1)O2 (centres unmarked) [Compound 444] | +++ | ++
COC(=O)C1=C(C(=O)NCCN(C)C)C2C=CC1(C(Cc1ccc(Cl)cc1)Nc1cc(F)cc(F)c1)O2 (centres unmarked) [Compound 426] | ++ | ++
COC(=O)C1=C(C(=O)Nc2ccc(N3CCN(C)CC3)c(F)c2)C2C=CC1(C(Cc1ccccc1)Nc1ccccc1)O2 (centres unmarked) [Compound 494] | + | +
COC(=O)C1=C(C(=O)Nc2ccc(OC)cc2OC)C2C=CC1(C(Cc1ccccc1)Nc1ccccc1)O2 (centres unmarked) [Compound 353] | + | +
CCOC(=O)C1=C(C(=O)Nc2ccc(C)c(F)c2)C2C=CC1(C(Nc1cccc(C)c1)c1ccc(CN3CCOCC3)cc1)O2 (centres unmarked) [Compound 623] | ++ | +
COC(=O)C1=C(C(=O)Nc2ccc(OCCN(C)C)cc2)C2C=CC1(C(Cc1ccccc1)Nc1ccccc1)O2 (centres unmarked) [Compound 491] | +++ | +
COC(=O)C1=C(C(=O)NC2CCN(C)CC2)C2C=CC1(C(Cc1ccccc1)Nc1cc(F)cc(F)c1)O2 (centres unmarked) [Compound 240] | ++ | +
COC(=O)C1=C(C(=O)OC)C2(C(Cc3ccccc3)Nc3cccc(F)c3)C=CC1O2 (centres unmarked) [Compound 417] | ++ | +
COC(=O)C1=C(C(=O)Nc2ccc(OC)c(F)c2)C2C=CC1(C(Cc1ccccc1)Nc1ccccc1)O2 (centres unmarked) [Compound 308] | + | +
COC(=O)C1=C(C(=O)OC)C2(C(Cc3ccccc3)Nc3cccc(Oc4ccccc4)c3)C=CC1O2 (centres unmarked) [Compound 307] | +++ | +
COC(=O)C1=C(C(=O)OC)C2(C(Cc3ccccc3)N(C(=O)C(F)(F)F)c3ccccc3)OC1C1=C2O1 (centres unmarked) [Compound 555] | + | +
COC(=O)C1=C(C(=O)NCCN2CCCC2)C2C=CC1(C(Cc1ccc(Cl)cc1)Nc1cc(F)cc(F)c1)O2 (centres unmarked) [Compound 441] | +++ | ++
CNC(=O)C1=C(C(=O)OC)C2(C(Cc3ccccc3)Nc3cc(F)cc(F)c3)C=CC1O2 (centres unmarked) [Compound 208] | ++ | +
CCOC(=O)C1=C(C(=O)Nc2cccnc2)C2C=CC1(C(Nc1ccccc1)c1ccc(CN3CCOCC3)cc1)O2 (centres unmarked) [Compound 550] | +++ | +
COC(=O)C1=C(C(=O)NCCN(C)C)C2C=CC1(C(Cc1ccc(F)cc1)Nc1cc(F)cc(Cl)c1)O2 (centres unmarked) [Compound 452] | ++ | +
CCN(CC)CCNC(=O)C1=C(C(=O)OC)C2(C(Cc3ccccc3)Oc3ccccc3)C=CC1O2 (centres unmarked) [Compound 439] | ++ | ++
COC(=O)C1=C(C(=O)OC)C2(C(Cc3ccccc3)Nc3cc(F)cc(Cl)c3)C=CC1O2 (centres unmarked) [Compound 209] | ++ | +
COC(=O)C1=C(C(=O)NC2CCN(C)CC2)C2C=CC1(C(Cc1ccccc1)Oc1ccccc1)O2 (centres unmarked) [Compound 292] | ++ | ++
CCOc1cccc(NC(Cc2ccccc2)C23C=CC(O2)C(C(=O)NCCN(C)C)=C3C(=O)OC)c1 (centres unmarked) [Compound 251] | +++ | +
COC(=O)C1=C(C(=O)NC2CCN(C)CC2)C2C=CC1(C(Cc1ccc(C(F)(F)F)cc1)Nc1ccccc1)O2 (centres unmarked) [Compound 488] | ++ | ++
COC(=O)C1=C(C(=O)NC(C)C(N)=O)C2C=CC1(C(Cc1ccccc1)Nc1cc(F)cc(F)c1)O2 (centres unmarked) [Compound 243] | ++ | +
CCOC(=O)C1=C(C(=O)Nc2ccccc2C)C2C=CC1(C(Nc1ccccc1)c1ccc(CN3CCOCC3)cc1)O2 (centres unmarked) [Compound 591] | ++ | ++

SMILES | SUMO [1] | c-Myc [2]
CCOC(=O)C1=C(C(=O)Nc2ccc(C)c(F)c2)C2C=CC1(C(Oc1ccc(F)cc1)c1ccc(CN3CCOCC3)cc1)O2 (centres unmarked) [Compound 486] | + | ++
COC(=O)C1=C(C(=O)OC)C2(C(Cc3ccccc3)Oc3ccccc3)OC1C1OC12 (centres unmarked) [Compound 515] | ++ | +
CCOC(=O)C1=CC2OC1(C(Nc1ccccc1)c1ccccc1)c1ccccc12 (centres unmarked) [Compound 625] | + | +
COC(=O)C1=C(C(=O)NCCN2CCCC2)C2C=CC1(C(Cc1ccc(C(F)(F)F)cc1)Nc1ccccc1)O2 (centres unmarked) [Compound 440] | +++ | ++
COC(=O)C1=C(C(=O)NCc2ccccn2)C2C=CC1(C(Cc1ccccc1)Nc1ccccc1)O2 (centres unmarked) [Compound 396] | + | ++
CCOC(=O)C1=C(C(=O)N(C)C)C2C=CC1(C(Nc1ccccc1)c1ccc(CN3CCOCC3)cc1)O2 (centres unmarked) [Compound 590] | + | +
C=CCC(Nc1ccccc1)C12C=CC(O1)C(C(=O)NCCN(C)C)=C2C(=O)OC (centres unmarked) [Compound 415] | ++ | +
COC(=O)C1=C(C(=O)NC2CCN(C(=O)c3ccc(C#N)cc3)CC2)C2C=CC1(C(Cc1ccccc1)Nc1ccccc1)O2 (centres unmarked) [Compound 379] | ++ | +
COC(=O)C1=C(C(=O)NNc2ccccn2)C2C=CC1(C(Cc1ccccc1)Nc1ccccc1)O2 (centres unmarked) [Compound 221] | ++ | +
CCN(CC)CCNC(=O)C1=C(C(=O)OC)C2(C(Cc3ccccc3F)Nc3cc(F)cc(F)c3)C=CC1O2 (centres unmarked) [Compound 456] | ++ | ++
COC(=O)C1=C(C(=O)NCC2CCCN2C)C2C=CC1(C(Cc1ccccc1)Nc1ccccc1)O2 (centres unmarked) [Compound 418] | ++ | ++
COC(=O)C1=C(C(=O)Nc2ccc(CN(C)C)cc2)C2C=CC1(C(Cc1ccccc1)Nc1ccccc1)O2 (centres unmarked) [Compound 506] | ++ | +
COC(=O)C1=C(C(=O)Nc2cnc(C)nc2)C2C=CC1(C(Cc1ccccc1)Nc1ccccc1)O2 (centres unmarked) [Compound 478] | +++ | +
CCOC(=O)C1=C(C(=O)Nc2ccc(C)c(F)c2)C2C=CC1(C(Nc1ccccc1)c1ccc(CN3CCOCC3)cc1)O2 (centres unmarked) [Compound 558] | + | +
C#Cc1ccc(NC(=O)C2=C(C(=O)OCC)C3(C(Nc4ccccc4)c4ccc(CN5CCOCC5)cc4)C=CC2O3)cc1 (centres unmarked) [Compound 577] | ++ | ++
CCOC(=O)C1=C(C(=O)OCC)C2(C(Cc3ccccc3)Nc3ccccc3)C=CC1(C)O2 (centres unmarked) [Compound 260] | ++ | +
COC(=O)C1=C(C(=O)NC2CCN(C)C2)C2C=CC1(C(Cc1ccccc1)Nc1ccc(F)cc1)O2 (centres unmarked) [Compound 263] | +++ | ++
CCOc1cccc(NC(Cc2ccccc2)C23C=CC(O2)C(C(=O)NCCN2CCOCC2)=C3C(=O)OC)c1 (centres unmarked) [Compound 252] | +++ | ++
COC(=O)C1=C(C(=O)NCc2ccncc2)C2C=CC1(C(Cc1ccccc1)Nc1ccccc1)O2 (centres unmarked) [Compound 201] | ++ | +
COC(=O)C1=C(C(N)=O)C2C=CC1(C(Cc1ccccc1)Nc1cc(F)cc(Cl)c1)O2 (centres unmarked) [Compound 217] | + | ++
COC(=O)C1=C(C(=O)NC2CCN(C(=O)NCc3cccnc3)CC2)C2C=CC1(C(Cc1ccccc1)Nc1ccccc1)O2 (centres unmarked) [Compound 384] | ++ | +
